Data taken from US20060241177A1, “Novel compounds, pharmaceutical compositions containing same, and methods of use for same” (priority 2002, published 2006).
Converted amounts (≈) assume the structure as drawn.

Legend:
[1] = target: T1, purified human FAS (Homo sapiens, UniProt P49327); assay: Measurement of FAS enzymatic activity (NADPH oxidation) and IC50; assay type: biochemical; settings: purified human FAS from ZR-75-1 cells, malonyl-CoA dependent NADPH oxidation
T1 construct: Human FAS was purified from cultured ZR-75-1 human breast cancer cells; endogenous in cells; host or cells: ZR-75-1 human breast cancer cells (ATCC); endogenous enzyme purified by PEG precipitation and Mono Q chromatography
Protocol: Human FAS was purified from cultured ZR-75-1 human breast cancer cells obtained from the American Type Culture Collection. The procedure, adapted from Linn et al., 1981, and Kuhajda et al, 1994, utilizes hypotonic lysis, successive polyethyleneglycol (PEG) precipitations, and anion exchange chromatography. ZR-75-1 cells are cultured at 37° C. with 5% CO2 in RPMI culture medium with 10% fetal bovine serum, penicillin and streptomycin.
Ten T150 flasks of confluent cells are lysed with 1.5 ml lysis buffer (20 mM Tris-HCl pH 7.5, 1 mM EDTA, 0.1 mM phenylmethanesulfonyl fluoride (PMSF), 0.1% Igepal CA-630) and dounce homogenized on ice for 20 strokes. The lysate is centrifuged in JA-20 rotor (Beckman) at 20,000 rpm for 30 minutes at 4° C. and the supernatant is brought to 42 ml with lysis buffer. A solution of 50% PEG 8000 in lysis buffer is added slowly to the supernatant to a final concentration of 7.5%. After rocking for 60 minutes at 4° C., the solution is centrifiged in JA-20 rotor (Beckman) at 15,000 rpm for 30 minutes at 4° C. Solid PEG 8000 is then added to the supernatant to a final concentration of 15%. After the rocking and centrifugation is repeated as above, the pellet is resuspended overnight at 4° C. in 10 ml of Buffer A (20 mM K2HPO4, pH 7.4). After 0.45 μM filtration, the protein solution is applied to a Mono Q 5/5 anion exchange column (Pharmacia). The column is washed for 15 minutes with buffer A at 1 ml/minute, and bound material is eluted with a linear 60-ml gradient over 60 minutes to 1 M KCl. FAS (MW˜270 kD) typically elutes at 0.25 M KCl in three 0.5 ml fractions identified using 4-15% SDS-PAGE with Coomassie G250 stain (Bio-Rad). FAS protein concentration is determined using the Coomassie Plus Protein Assay Reagent (Pierce) according to manufacturer's specifications using BSA as a standard This procedure results in substantially pure preparations of FAS (>95%) as judged by Coomassie-stained gels.
Measurement of FAS Enzymatic Activity and Determination of the IC50 of the Compounds
FAS activity is measured by monitoring the malonyl-CoA dependent oxidation of NADPH spectrophotometrically at OD340 in 96-well plates (Dils et al and Arslanian et at, 1975). Each well contains 2 μg purified FAS, 100 mM K2HPO4, pH 6.5, 1 mM dithiothreitol (Sigma), and 187.5 μM β-NADPH (Sigma). Stock solutions of inhibitors are prepared in DMSO at 2, 1, and 0.5 mg/ml resulting in final concentrations of 20, 10, and 5 μg/ml when 1 μl of stock is added per well. For each experiment, cerulenin (Sigma) is run as a positive control along with DMSO controls, inhibitors, and blanks (no FAS enzyme) all in duplicate.
The assay is performed on a Molecular Devices SpectraMax Plus Spectrophotometer. The plate containing FAS, buffers, inhibitors, and controls are placed in the spectrophotometer heated to 37° C. Using the kinetic protocol, the wells are blanked on duplicate wells containing 100 μl of 100 mM K2HPO4, pH 6.5 and the plate is read at OD340 at 10 sec intervals for 5 minutes to measure any malonyl-CoA independent oxidation of NADPH. The plate is removed from the spectrophotometer and malonyl-CoA (67.4 μM, final concentration per well) and acetyl-CoA (61.8 μM, final concentration per well) are added to each well except to the blanks. The plate is read again as above with the kinetic protocol to measure the malonyl-CoA dependent NADPH oxidation. The difference between the Δ OD340 for the malonyl-CoA dependent and non-malonyl-CoA dependent NADPH oxidation is the specific FAS activity. Because of the purity of the FAS preparation, non-malonyl-CoA dependent NADPH oxidation is negligible.
The IC50 for the compounds against FAS is determined by plotting the Δ OD340 for each inhibitor concentration tested, performing linear regression and computing the best-fit line, r^2 values, and 95% confidence intervals. The concentration of compound yielding 50% inhibition of FAS is the IC50. […]

[2] = test system: MCF-7 human breast cancer cells; assay: XTT cytotoxicity assay; assay type: cell-based; settings: MCF7, MCF-7 cells, 72 hours
Protocol: The XTT assay is a non-radioactive alternative for the [^51Cr] release cytotoxicity assay. XTT is a tetrazolium salt that is reduced to a formazan dye only by metabolically active, viable cells. The reduction of XTT is measured spectrophotometrically as OD490-OD650.
To measure the cytotoxicity of specific compounds against cancer cells, 9×10^3 MCF-7 human breast cancer cells, obtained from the American Type Culture Collection are plated per well in 96 well plates in DMEM medium with 10% fetal bovine serum, msulin, penicillin, and streptomycin. Following overnight culture at 37° C. and 5% CO2, the compounds to be tested, dissolved in DMSO, are added to the wells in 1 μl volume at the following concentrations: 80, 40, 20, 10, 5, 2.5, 1.25, and 0.625 μg/ml in triplicate. Additional concentrations are tested if required. 1 μl of DMSO is added to triplicate wells are the vehicle control. C75 is run at 40, 20, […], and 5 μg/ml in triplicate as positive controls.
After 72 hours of incubation, cells are incubated for 4 hours with the XTT reagent as per manufacturer's instructions (Cell Proliferation Kit II (XTT) Roche). Plates are read at OD490 and OD650 on a Molecular Devices SpectraMax Plus Spectrophotometer. Three wells containing the All reagent without cells serve as the plate blank. XTT data are reported as OD490-OD650. Averages and standard error of the mean are computed using SOFTmax Pro software ([…]).
The IC50 for the compounds is defined as the concentration of drug leading to a 50% reduction in OD490-OD650 compared to controls. The OD490-OD650 are computed by the SOFTmax PRO software Molecular Devices) for each compound concentration. IC50 is calculated by linear regression, plotting the FAS activity as percent of control versus drug concentrations. Linear regression, best-fit line, r^2, and 95% confidence intervals are determined using Prism Version 3.0 (Graph Pad Software).

T1 sequence (P49327 whole entry): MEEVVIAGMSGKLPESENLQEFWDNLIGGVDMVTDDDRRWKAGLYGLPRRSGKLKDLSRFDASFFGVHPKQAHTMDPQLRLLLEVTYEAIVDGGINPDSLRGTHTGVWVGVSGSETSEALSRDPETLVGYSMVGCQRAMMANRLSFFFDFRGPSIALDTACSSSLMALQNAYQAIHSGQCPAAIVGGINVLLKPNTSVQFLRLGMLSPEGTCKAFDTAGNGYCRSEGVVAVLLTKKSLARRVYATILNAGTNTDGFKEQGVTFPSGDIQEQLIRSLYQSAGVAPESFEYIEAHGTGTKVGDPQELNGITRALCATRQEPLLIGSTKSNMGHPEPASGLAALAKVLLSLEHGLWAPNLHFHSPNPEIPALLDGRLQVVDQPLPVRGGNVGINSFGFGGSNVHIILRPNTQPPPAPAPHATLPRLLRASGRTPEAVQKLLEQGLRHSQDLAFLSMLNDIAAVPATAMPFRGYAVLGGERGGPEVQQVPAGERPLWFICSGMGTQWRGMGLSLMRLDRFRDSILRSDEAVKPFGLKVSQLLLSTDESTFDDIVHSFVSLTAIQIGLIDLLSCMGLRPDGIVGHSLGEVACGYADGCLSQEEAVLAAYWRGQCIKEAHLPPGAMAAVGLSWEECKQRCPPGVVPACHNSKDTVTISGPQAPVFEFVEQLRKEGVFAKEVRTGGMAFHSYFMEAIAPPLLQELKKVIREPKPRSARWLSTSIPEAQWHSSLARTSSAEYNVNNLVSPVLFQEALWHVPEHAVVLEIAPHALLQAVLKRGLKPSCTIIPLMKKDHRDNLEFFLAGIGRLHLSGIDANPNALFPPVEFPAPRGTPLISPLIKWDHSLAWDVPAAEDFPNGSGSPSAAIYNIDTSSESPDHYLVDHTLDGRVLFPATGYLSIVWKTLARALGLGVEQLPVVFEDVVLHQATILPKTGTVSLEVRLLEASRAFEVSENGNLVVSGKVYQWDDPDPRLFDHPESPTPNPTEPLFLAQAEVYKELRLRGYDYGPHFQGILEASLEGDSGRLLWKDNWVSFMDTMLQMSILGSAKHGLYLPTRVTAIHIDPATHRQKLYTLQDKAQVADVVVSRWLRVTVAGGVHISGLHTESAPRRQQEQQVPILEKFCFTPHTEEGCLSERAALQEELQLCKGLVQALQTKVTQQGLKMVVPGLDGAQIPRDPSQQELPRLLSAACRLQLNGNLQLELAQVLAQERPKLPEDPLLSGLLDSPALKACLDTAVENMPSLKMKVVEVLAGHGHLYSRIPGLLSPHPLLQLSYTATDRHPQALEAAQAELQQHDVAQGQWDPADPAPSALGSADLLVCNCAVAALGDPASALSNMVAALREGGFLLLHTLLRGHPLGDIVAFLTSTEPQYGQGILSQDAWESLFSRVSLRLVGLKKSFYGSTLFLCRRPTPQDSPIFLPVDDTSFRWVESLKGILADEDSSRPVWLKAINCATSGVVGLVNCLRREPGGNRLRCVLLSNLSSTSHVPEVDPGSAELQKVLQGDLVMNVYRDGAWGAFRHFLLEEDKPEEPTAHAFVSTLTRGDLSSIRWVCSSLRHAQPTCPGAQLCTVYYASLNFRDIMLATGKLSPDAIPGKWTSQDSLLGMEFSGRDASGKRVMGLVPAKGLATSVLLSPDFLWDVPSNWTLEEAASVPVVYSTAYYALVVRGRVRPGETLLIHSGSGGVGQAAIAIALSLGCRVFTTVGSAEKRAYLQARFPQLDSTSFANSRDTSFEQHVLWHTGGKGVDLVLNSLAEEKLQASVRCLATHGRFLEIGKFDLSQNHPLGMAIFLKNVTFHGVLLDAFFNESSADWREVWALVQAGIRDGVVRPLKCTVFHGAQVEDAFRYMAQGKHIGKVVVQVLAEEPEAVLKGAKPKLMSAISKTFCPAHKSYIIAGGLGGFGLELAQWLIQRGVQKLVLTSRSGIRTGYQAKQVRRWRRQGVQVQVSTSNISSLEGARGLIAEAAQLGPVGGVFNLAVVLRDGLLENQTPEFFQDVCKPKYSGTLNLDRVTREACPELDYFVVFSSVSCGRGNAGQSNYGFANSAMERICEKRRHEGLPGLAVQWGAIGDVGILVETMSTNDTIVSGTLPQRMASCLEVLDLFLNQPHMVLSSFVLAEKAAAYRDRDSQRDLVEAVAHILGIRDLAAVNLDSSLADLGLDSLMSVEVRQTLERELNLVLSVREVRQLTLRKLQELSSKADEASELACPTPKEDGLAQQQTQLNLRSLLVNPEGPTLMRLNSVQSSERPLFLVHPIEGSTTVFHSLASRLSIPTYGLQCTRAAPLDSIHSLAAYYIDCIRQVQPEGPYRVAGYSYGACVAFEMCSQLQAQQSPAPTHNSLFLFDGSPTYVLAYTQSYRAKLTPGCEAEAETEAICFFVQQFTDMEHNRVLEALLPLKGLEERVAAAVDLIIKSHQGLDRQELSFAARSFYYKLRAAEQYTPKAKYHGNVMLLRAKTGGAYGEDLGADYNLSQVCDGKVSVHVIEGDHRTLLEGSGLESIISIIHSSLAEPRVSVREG

| SMILES | FAS (IC50) [1] | IC50 [2] | IC50 [1] |
| --- | --- | --- | --- |
| CCCCCCCCC1OC(=O)[C@@H](C)[C@H]1C(=O)O (stereo partly shown) | Neg | > 80 µg/mL | – |
| C=CCNC(=O)C1=C(C)C(=O)O[C@H]1CCCCCCCC | – | 27.8 ± 3.8 µg/mL (≈ 94.7 µM) | 317 µM |
| C=CCNC(=O)[C@@H]1C(=C)C(=O)O[C@H]1CCCCCCCC (racemic) | Neg | 0.81 ± 0.01 µg/mL (≈ 2.76 µM) | – |
| C=CCNC(=O)[C@H]1[C@H](CCCCCCCC)OC(=O)[C@@H]1C (racemic) | – | 20.8 ± 7.1 µg/mL (≈ 70.4 µM) | 450 µM |
| C=CCNC(=O)[C@@H]1C(=C)C(=O)O[C@H]1CCCCCC (racemic) | – | 1.6 ± 0.1 µg/mL (≈ 6.03 µM) | 305 µM |
| C=CCNC(=O)[C@@H]1C(=C)C(=O)O[C@H]1CCCC (racemic) | – | 2.4 ± 0.2 µg/mL (≈ 10.1 µM) | 451 µM |
| C=C1C(=O)O[C@@H](CCCCCCCC)[C@@H]1C(=O)NCCO (racemic) | Neg | 4.1 ± 2.2 µg/mL (≈ 13.8 µM) | – |
| C=C1C(=O)O[C@@H](CCCCCCCC)[C@@H]1C(=O)NCC(=O)OC (racemic) | Neg | 2 ± 0.5 µg/mL (≈ 6.15 µM) | – |
| C=C1C(=O)O[C@@H](CCCCCCCC)[C@@H]1C(=O)NCC(=O)O (racemic) | Neg | > 80 µg/mL | – |

Second part, led by results:

| FAS (IC50) [1] | SMILES | IC50 [2] | IC50 [1] |
| --- | --- | --- | --- |
| Neg | CCCCCCCCC1OC(=O)[C@H](C)[C@H]1C(=O)O (stereo partly shown) | > 80 µg/mL | – |
| Neg | C=CCNC(=O)[C@H]1[C@H](CCCCCCCC)OC(=O)[C@H]1C (racemic) | 59.4 ± 6.4 µg/mL (≈ 201 µM) | – |
